Assay [1] concerns the target T1, recombinant human AChE (Homo sapiens, UniProt P22303). The experiment in a line: biochemical. The assay is classed as biochemical. The settings on record: for AC50: AC50 (uM).
Assay [2] deals with AChE in neural stem cells (Homo sapiens, UniProt P22303). The experiment in a line: cell-based.
Assay [3] addresses T1, recombinant human AChE. The experiment in a line: biochemical.
The target in another assay is AChE in SH-SY5Y cells (Homo sapiens, UniProt P22303). The experiment in a line: cell-based.
Sequence of AChE in SH-SY5Y cells (P22303 32-614): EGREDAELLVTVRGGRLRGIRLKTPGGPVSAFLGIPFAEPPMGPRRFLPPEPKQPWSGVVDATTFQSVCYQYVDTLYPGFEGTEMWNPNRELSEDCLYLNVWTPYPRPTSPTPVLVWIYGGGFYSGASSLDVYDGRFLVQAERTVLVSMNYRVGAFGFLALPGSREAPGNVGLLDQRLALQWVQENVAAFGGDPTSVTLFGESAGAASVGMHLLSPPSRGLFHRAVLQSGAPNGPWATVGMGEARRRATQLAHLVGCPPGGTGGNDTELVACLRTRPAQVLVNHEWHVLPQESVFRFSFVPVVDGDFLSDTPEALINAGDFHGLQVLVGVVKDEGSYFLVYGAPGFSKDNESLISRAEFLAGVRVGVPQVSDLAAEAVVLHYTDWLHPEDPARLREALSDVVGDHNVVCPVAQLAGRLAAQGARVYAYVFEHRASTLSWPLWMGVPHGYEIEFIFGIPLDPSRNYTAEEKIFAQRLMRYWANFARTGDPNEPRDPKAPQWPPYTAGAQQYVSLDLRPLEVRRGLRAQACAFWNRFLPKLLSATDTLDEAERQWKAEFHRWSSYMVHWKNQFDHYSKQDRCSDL
In assay [4] the target is AChE in neural stem cell spheroids (Homo sapiens, UniProt P22303). The experiment in a line: cell-based. Conditions: for IC50: potency (IC50).
Sequence of AChE in neural stem cell spheroids (P22303 32-614): as above
Assay [5] has as its target T1, recombinant human AChE. The experiment in a line: biochemical. This is another data set of the same source.
The target in assay [6] is T1, recombinant human AChE. The experiment in a line: biochemical. The source holds these as a separate data set.
Assay [7] addresses AChE in SH-SY5Y spheroids (Homo sapiens, UniProt P22303). The experiment in a line: cell-based. Conditions: potency (IC50).
Assay [8] addresses T1, recombinant human AChE.
[9] abbreviates: potency (IC50), SH-SY5Y cells monolayer.
Where [10] appears, read: Neural stem cell spheroid (48 h).
The mark [11] stands for this setting: potency (IC50), Enzyme with microsomes.
[12] abbreviates: Neural stem cell spheroid (24 h).

Molecules are shown by their SMILES. Several values for one entry are separate records, joined by “and”; a condition that tells them apart may be missing. Identical values can stand only once. Like-named read-outs stand apart in the source and are kept apart here.
Wherever IR or R is given: key: Reversible (R); Irreversible (IR); ND, not detected in enzyme-based AChE inhibition assay from current study.

Sequence of AChE in SH-SY5Y spheroids (P22303 32-614): as above
T1 sequence (P22303 32-614): as above
Sequence of AChE in neural stem cells (P22303 32-614): as above

Usually AC50 stands for the concentration giving half of the maximal activity seen. What is called IC50 is the concentration that inhibits the measured activity by half. For `CCN1CCCC1CNC(=O)c1cc(S(=O)(=O)CC)c(N)cc1OC` (stereo not drawn) [Amisulpride, reference compound], the “IR or R” value at recombinant human AChE [1] is “R”. Besides, the AC50 at recombinant human AChE [1] is 17.2 µM (2×) and 6.85 µM and 19.3 µM (2×) and 3.43 µM and 15.3 µM and 21.7 µM. Moreover, the IC50 in assay [2] is 17.2 µM; on recombinant human AChE [3] (IC50 (uM)) it was 15.5 µM; at recombinant human AChE [3] (potency (IC50), Enzyme), 14.3 µM; against AChE in SH-SY5Y cells (IC50 (uM)) it was 21.9 µM and 34.7 µM and 38.9 µM; at AChE in SH-SY5Y cells (setting [9]), 30.7 µM; in assay [4] (setting [10]) it was 12.1 µM. In addition, the IC50 amounted to 38.9 µM at recombinant human AChE [5] (IC50 (uM)); 21.8 µM on recombinant human AChE [5] (setting [11]); 24.3 µM at recombinant human AChE [6]; 11.1 µM in assay [7] (SH-SY5Y spheroids (24 h)); 28.6 µM in assay [7] (SH-SY5Y spheroids (48 h)). For the same compound, the “CC-v2 (curve classes)” value is on record as -2.2 on recombinant human AChE [3] and -2.4 on recombinant human AChE [8]. In addition, the values for the Efficacy on recombinant human AChE [3] and at recombinant human AChE [8] were -62.971 and -30.734, respectively. For the same compound, the “potency (IC50), Neural stem cell spheroid (24 h)” value in assay [4] was “Inactive”.
Take `CCCCSP(=O)(SCCCC)SCCCC` [Tribufos]: the AC50 on recombinant human AChE [1] was 88.5 µM. The IC50 in assay [2] was 39.8 µM; at recombinant human AChE [3] (potency (IC50), Enzyme) it was 35.3 µM; on recombinant human AChE [3] (read-out: IC50), 35.6 µM; at AChE in SH-SY5Y cells (IC50 (uM)), 28.3 µM and 31 µM and 17.8 µM and 27.6 µM and 15.9 µM and 34.8 µM; on AChE in SH-SY5Y cells (setting [9]), 15.3 µM; in assay [4] (setting [12]), 31.4 µM. Also, the IC50 in assay [4] (setting [10]) was 14 µM; on recombinant human AChE [5] (IC50 (uM)) it was 5.02 µM and 5.51 µM; at recombinant human AChE [5] (setting [11]), 3.66 µM; on recombinant human AChE [6], 25.1 ± 2.88 µM; in assay [7] (SH-SY5Y spheroids (24 h)) it was 12.2 µM; in assay [7] (SH-SY5Y spheroids (48 h)), 12 µM. Further, the “CC-v2 (curve classes)” value at recombinant human AChE [3] was -2.2 and 4; at AChE in SH-SY5Y cells it was -2.2 and -1.2; on recombinant human AChE [8] it was -1.1.
As for `COP(=O)(OC)SCn1c(=O)oc2cc(Cl)cnc21` [Azamethiphos], the AC50 at recombinant human AChE [1] was 11.1 µM and 15.7 µM and 14 µM and 39.5 µM and 35.2 µM and 17.7 µM and 7.03 µM and 7.89 µM and 9.93 µM. Besides, the IC50 in [2] was 4.79 ± 0.31 µM; on recombinant human AChE [3] (potency (IC50), Enzyme), 1.91 ± 0.26 µM; at AChE in SH-SY5Y cells (IC50 (uM)), 3.56 µM and 3.17 µM; on AChE in SH-SY5Y cells (setting [9]) it was 2.81 ± 0.32 µM; in assay [4] (setting [12]), 1.82 ± 0.76 µM; in assay [4] (setting [10]) it was 3.08 ± 0.77 µM. The IC50 was found to be 6.34 ± 1.18 µM on recombinant human AChE [5] (setting [11]), 3.81 ± 0.25 µM at recombinant human AChE [6], 4.05 ± 2.65 µM in [7] (SH-SY5Y spheroids (24 h)) and 3.3 ± 0.59 µM in assay [7] (SH-SY5Y spheroids (48 h)). The “CC-v2 (curve classes)” value is -1.1 at recombinant human AChE [3], -1.1 on AChE in SH-SY5Y cells and -2.1 on recombinant human AChE [8]. Besides, the Efficacy is recorded as -98.261 at recombinant human AChE [3] and -92.198 on recombinant human AChE [8].
In the case of `CCOC(=O)c1cn2nc(OP(=S)(OCC)OCC)cc2nc1C` [Pyrazophos], at recombinant human AChE [1] (activity_60), the half-maximal activity concentration (AC50) is 55.9 µM and 62.7 µM. Further, the IC50 in [2] was 16.4 µM; at recombinant human AChE [3] (potency (IC50), Enzyme), 49.8 µM; against AChE in SH-SY5Y cells (IC50 (uM)), 35.6 µM and 71 µM and 79.6 µM; at AChE in SH-SY5Y cells (setting [9]), 46.2 µM; in [4] (setting [12]), 2.46 µM; in assay [4] (setting [10]), 4.46 µM. For the same compound, the IC50 on recombinant human AChE [5] (setting [11]) turned out to be 7.89 µM; at recombinant human AChE [6], 85.3 ± 5.56 µM; in assay [7] (SH-SY5Y spheroids (24 h)), 29.7 µM; in [7] (SH-SY5Y spheroids (48 h)), 46.2 µM. Moreover, the “CC-v2 (curve classes)” value at recombinant human AChE [3] is on record as -3; at AChE in SH-SY5Y cells, -2.1; on recombinant human AChE [8], -1.1. Also, the Efficacy at recombinant human AChE [3] was -45.459; at recombinant human AChE [8], -98.116.
Regarding `COc1ccc(C(=O)NCc2ccc(OCCN(C)C)cc2)cc1OC.Cl` [Itopride hydrochloride, reference compound], the “IR or R” value on recombinant human AChE [1] is “R”. Besides, the AC50 at recombinant human AChE [1] is 15.3 µM (3×) and 21.7 µM and 17.2 µM and 19.3 µM. Moreover, the IC50 in [2] is 11.2 ± 3.11 µM; at recombinant human AChE [3] (IC50 (uM)) it was 27.5 µM; on recombinant human AChE [3] (potency (IC50), Enzyme) it was 12.7 ± 0.85 µM; on AChE in SH-SY5Y cells (IC50 (uM)), 6.92 µM and 4.9 µM and 5.5 µM; against AChE in SH-SY5Y cells (setting [9]), 7.68 µM; in assay [4] (setting [12]) it was 23.5 ± 3.23 µM. The IC50 was 14.2 µM in [4] (setting [10]); 19.4 ± 2.22 µM on recombinant human AChE [5] (setting [11]); 22.6 ± 1.53 µM on recombinant human AChE [6]; 4.44 ± 3.53 µM in assay [7] (SH-SY5Y spheroids (24 h)); 11.2 ± 3.12 µM in assay [7] (SH-SY5Y spheroids (48 h)). The “CC-v2 (curve classes)” value on recombinant human AChE [3] is -2.2; at AChE in SH-SY5Y cells, -1.1 and -2.1; at recombinant human AChE [8], 4. Also, the Efficacy on recombinant human AChE [3] is reported as -69.798; at recombinant human AChE [8] it was 0.

Values taken from article PMC8041433 (Environmental Health Perspectives, 2021).
